{"source": "patent US20160214958A1", "about": "“COMPOUNDS AND USE FOR TREATING CANCER” (GLIONOVA AB, priority 2013, published 2016)", "key": {"[1]": {"test_system": "zebrafish embryos", "conditions": "in vivo", "method": "To assess the selectivity of compounds on mixed cultures consisting of GSC with other cell types, a hanging drop-based mixed culture procedure was developed. U3013MG GSCs were labeled with a cell tracker red and fibroblasts with a cell tracker green fluorescent dye for co-cultures to assess selective effects on glioma cells (glioblastoma) in a mixed culture setting. Cells organized in layers in the absence of compounds.\nA zebrafish model was used to assess the developmental and cardiac toxicity of advanced hits from the screen. For the developmental toxicity experiment, zebrafish embryos at one-cell stage were distributed into a 96 well plate (3 embryos per well in 200 μl of egg water) and exposed to DMSO as a control or various concentration of compounds. The egg water (with or without compound) was replaced every 6 hrs and the embryos were allowed to grow for three days. The embryos were monitored every day and allowed to grow for 5 days before the phenotype was recorded. For the cardiotoxicity assay, an ex vivo culture of adult hearts was performed according to our previously published procedure (Kitambi et al., (2012) BMC Physiol. 12, 3). Adult hearts from male zebrafish were exposed to compounds and the effect on the heart beat was recorded and analysed using developed methods (Kitambi et al., (2012) BMC Physiol. 12, 3)."}, "[2]": {"test_system": "U3013M GSCs intracranial tumor", "assay": "Mouse xenograft experiment, intracranial infusion by osmotic minipump", "type": "in vivo, Nod/SCID mice", "conditions": "15 μM, 0.5 μL/hr, one week, started 6 weeks after grafting, vs vehicle", "method": "The ability of S10 to attenuate tumor progression was next examined in a mouse model for human GBM. Nod/SCID mice received intracranial injections of 100 000 U3013M GSCs and the resulting tumor was allowed to develop for 7 weeks. […] Tumors were highly immunoreactive for human Nestin (hNestin) and human GFAP (hGFAP). S10 (15 μM, 0.5 μL/hr) or vehicle (DMSO) was administered into the site of original cell deposit by an osmotic minipump 6 weeks after cells were grafted. Animals were collected for histological analysis following one week of treatment. […] A massive LAMP1 staining was observed within the tumor cell mass following one week S10 administration, with most or all cells displaying immunoreactivity while mice receiving vehicle were devoid of LAMP1.\nGSCs were dissociated with trypsin, resuspended in PBS and kept on ice and the viability of cells were checked using trypan blue before and after the experiment. Surgery in mice was performed using sterile techniques, 6 to 8 week old NOD-SCID mice were anaesthetized using a mixture of isoflurane and oxygen. […] The mice were monitored for weight loss and signs of distress. […]"}, "[3]": {"test_system": "S10-resistant GSCs (U3013MG)", "assay": "Viability of S10-resistant GSCs surviving the shRNA screen", "type": "cell-based", "conditions": "Homo sapiens, cells surviving 14 μM S10 after shRNA library transduction, read-out: EC50 on GSC viability, S10-resistant GSCs", "source_text": "A genome wide screen with shRNA libraries was used to identify pathways for S10 induced macropinocytosis. The approach was based on the idea that depleting a key factor in the pathway should render GSCs refractive to S10 induced death. Three different DECIPHER pooled lentiviral shRNA libraries consisting of 82500 shRNA covering 15377 genes grouped into Human Module 1 (genes associated with various signaling pathways), Human Module 2 (disease-associated genes) and Human Module 3 (genes associated with cell surface, extracellular and DNA binding), were used to transduce U3013MG GSCs. Four days later, 14 μM S10 was added for one day after which cells were cultured in standard medium for five month. Surviving cells were thereafter dissociated and further expanded. […] Phospho-MKK4 increased within 5 min of S10 exposure and remained at similar levels for at least 26 hrs of stimulation. Abrogation of MAP2K4 activity by five independent shRNAs led to marked increase of the EC50 viability value of S10-treated GSC. […] MKK4 was thereafter confirmed as a required protein for S10 induced macropinocytosis. […] Thus, the distinctive feature of susceptibility to macropinocytosis and death in GSCs require MKK4 activity.\nGSCs grown to 70% confluency were transduced by DECIPHER pooled lentiviral shRNA libraries consisting of Human Module 1, 2 and 3 using earlier described protocols (Pasini et al., 2008). […]"}}}
{"smiles": "OC(c1cc(-c2ccc(Cl)cc2)nc2ccccc12)C1CCCCN1", "note": "(racemic) [Compound S10, (2-(4-chlorophenyl)quinolin-4-yl)(piperidin-2-yl)methanol]", "values": [{"measurement": "effect on zebrafish development", "setting": "[1]", "value": "did not exert any effect of zebrafish development"}, {"measurement": "loss of brain tissue by necrosis", "setting": "[2]", "value": "markedly and significantly reduced"}, {"measurement": "tumor infiltration and area of hGFAP and hNestin immunoreactivity", "setting": "[2]", "value": "significantly reduced"}, {"measurement": "EC50", "setting": "[3]", "value": "14.3 ± 1.16", "unit": "µM"}]}
